# Source: PMC2999418, “Biological Activity and Binding Site Characteristics of the PA1b Entomotoxin on Insects from Different Orders” (Journal of Insect Science, 2007)
# Where two headings read alike, the source gives them in different places.
# Columns and labels:
# Culex pipiens = experiment: Mosquito larval bioassay, toxin added to water; format: in vivo; settings: 250 µg.ml^-1 of water
# Experimental: The mosquito bioassay was performed on larvae of Culex pipiens (Diptera) in water. The toxin was added directly to the water, and the mortality of L3 larvae was recorded daily.
# All toxicity assays were carried out using a mixture of PA1b isoforms (98% purity by HPLC). All tests were performed on at least 30 insects for assays and for control test (without toxin), except for the three aphid species (50 insects) and for Trichogramma (more than 300 eggs by assays). When adults were used, the insects were synchronized at the imaginal molt. The statistical analyses were performed using the JMP software (SAS, Grégy-sur-Yerres FRA).
# [1] = biological target: PA1b binding protein on membrane extracts; experiment: 125I-PA1b binding (competition) on insect membrane extracts; parameters: species or system Harmonia axyridis; settings: H. axyridis membrane extracts; competition with purified 3741 isoform
# Experimental: (§1) The isolation of membrane proteins for binding studies was performed as described by Gressent et al. ([2003]). For PA1b degradation tests, insect extracts were prepared as follows, 1 g of insects were ground with a mortar and pestle in liquid nitrogen. The resulting powder was resuspended in 2 ml of extraction buffer (20 mM Tris-HCl pH 8; 0.25 M sucrose; 2 mM MgCl2). The slurry was centrifuged for 2 min at 1000 g, and the supernatant was stored at -2O°C until required. All the operations were performed at 4°C.
# (§2) The peptidic toxin PA1b-3471 isoform was labelled with I^125 to a specific radioactivity of about 900 Ci.mmor^-1, and then used for binding studies with membrane extracts, according to Gressent et al. ([2003]).
# (§3) PA1b binding activity was present in all insect species, except for the resistant weevil strains and the pea specific pest Bruchus pisorum, regardless of the sensitivity or insensitivity of these insects to PA1b toxicity, as evaluated from our insect bioassays. […] The relative abundance of the binding sites was also slightly different in this group of species, varying from 10 pmol/mg of protein for T. pretiosum to a maximum of 79 pmol/mg of protein for M. persicae.
# [2] = biological target: PA1b binding protein on membrane extracts; experiment: as above; parameters: species or system Tribolium castaneum; settings: T. castaneum membrane extracts; competition with purified 3741 isoform
# Experimental: as §1, §2, §3
# [3] = biological target: PA1b binding protein on membrane extracts; experiment: as above; parameters: species or system Drosophila melanogaster; settings: D. melanogaster membrane extracts; competition with purified 3741 isoform
# Experimental: as §1, §2, §3
# [4] = biological target: PA1b binding protein on membrane extracts; experiment: as above; parameters: species or system Aphis gossypii; settings: A. gossypii membrane extracts; competition with purified 3741 isoform
# Experimental: as §1, §2, §3
# pronase E type XIV = experiment: PA1b degradation assay with commercial protease; format: in vitro ADME; settings: 10 µg pronase E, 37°C, one night incubation, C18 HPLC
# Experimental: (§4) PA1b degradation assays were performed using 10 µg of peptide (PA1b isoform mixture) in a final volume of 100 µl buffer. Assays with commercially (SIGMA, www.sigmaaldrich.com) available enzymes were performed in Glycine-NaOH buffer (20 mM pH 9) at 3O°C for proteinase K (E.C. 3.4.21.64), Tris-HCl buffer (20 mM pH 7.5) + EDTA 10 mM at 37°C for pronase E type XIV, MES-NaOH buffer (20 mM pH 6.2) at 25°C for papain (E.C. 3.4.22.2), Tris-HCl buffer (20 mM pH 7.8) at 25°C for chymotrypsin (E.C. 3.4.21.1), and Tris-HCl buffer (20 mM pH 7.6) at 25°C for trypsin (E.C. 3.4.21.4). Assays were done with 10 µg of each enzyme, and control assays were performed with 10 µg of enzymes denaturated by 10 min boiling. Assays with insect extracts were carried out in 20 mM buffers from pH 3 to 9 (Glycine-HCl, pH 3; sodium acetate pH 4-5; MES-NaOH pH 6; Tris-HCl pH 7-8; Glycine NaOH pH 9) at 3O°C. […]
# (§5) For all assays, after a one night incubation, 150 µl of methanol were added to the mixture and incubated for 60 min at 4°C. […] PA1b peptide isoforms were detected by their absorbance at 210 nm, quantified by the measurement of the peak area and with reference to known quantities of pure peptide isoform used as standards.
# [5] = system: A. gossypii protein extracts; experiment: PA1b degradation assay with total insect protein extract; format: in vitro ADME, Aphis gossypii; settings: 200 µg A. gossypii (L4) proteins, 10 µg PA1b in 100 µl, 20 mM buffers pH 3 to 9, 30°C, one night incubation; C18 HPLC, UV 210 nm; mean of triplicates
# Experimental: as §1
# (§6) PA1b degradation assays were performed using 10 µg of peptide (PA1b isoform mixture) in a final volume of 100 µl buffer. […]
# as §5
# Figure 3. […] Degradation of PA1b was monitored after incubation by reverse-phase HPLC. […]
# [6] = system: D. melanogaster protein extracts; experiment: as above; format: in vitro ADME, Drosophila melanogaster; settings: 200 µg D. melanogaster (L3) total protein extract, 10 µg PA1b, pH 3 to 9, 30°C, one night incubation; C18 HPLC; data not shown
# Experimental: as §1, §6, §5
# [7] = system: gut extracts from M. brassicae; format: in vitro ADME, Mamestra brassicae; settings: 400 µg M. brassicae gut proteins per assay, 10 µg PA1b, pH 3 to 9, 30°C, one night incubation; C18 HPLC; data not shown
# Experimental: as §4
# as §5, with “standards. […]” for “standards.”
# Sitophilus oryzae = settings: three natural S. oryzae strains able to feed on pea seeds; ref Grenier et al. 1997; cited from earlier work
# Excerpt: S. oryzae strains resistant to PA1b exist naturally.
# [8] = biological target: PA1b binding protein on membrane extracts; settings: ref Gressent et al (2003), cited from earlier work
# Excerpt: Table 1. Affinity (Kd) and relative abundance (Bmax) of the PA1b binding protein on membrane extracts from different insect species and strains. | column: Kd (nM); Bmax (pmol/mg of protein)
sequence,measurement,setting,value
"ASCNGVCSPFEMPPCGTSACRCIPVGLVIGYCR NPSG (bicyclic or more) [PA1b, plant peptide of 37 amino acids purified from pea (Pisum sativum) seeds; entomotoxic cystine-knot peptide with three disulfide bonds]",survival of L3 larvae,Culex pipiens; after one day,100%
same,survival of L3 larvae,Culex pipiens; after two days,0%
same,Kd,[1],52 nM
same,Kd,[2],11 nM
same,Kd,[3],16 nM
same,Kd,[4],39 nM
same,"PA1b recovered after pronase E treatment, relative to control","pronase E type XIV; 10 µg PA1b, Tris-HCl pH 7.5 + EDTA 10 mM",20 % of the control
same,"Recovered PA1b, Assays","pronase E type XIV; 10 µg PA1b isoform mixture in 100 µl Tris-HCl 20 mM pH 7.5 + EDTA 10 mM, UV 210 nm, mean of triplicates",1.7 µg
same,recovered PA1b after incubation with insect proteins versus heat-denatured control,[5],very close to the control test
same,recovered PA1b after incubation with insect proteins versus heat-denatured control,[6],without any difference between control and test assays
same,recovery of PA1b after incubation with native or heat inactivated gut proteins,[7],no difference
same,resistance of pea-feeding S. oryzae strains to the purified toxin,Sitophilus oryzae,fully resistant
same,Kd,[8]; S. granarius Brayard membrane extracts,6.3 nM
same,Kd,[8]; S. zeamais Ls membrane extracts,9 nM
